Laboratory results reported in US7179920B2, “3-thia-4-arylquinolin-2-one derivatives” (Bristol-Myers Squibb Company, priority 2003, dated 2007).

Key:
[1] = system: cloned mammalian (mSlo or hSlo) BK (Maxi-K) channel; assay: Assay for BK channel openers: two-electrode voltage clamp of BK-mediated outward current in Xenopus oocytes; format: cell-based; conditions: voltage step to +140 mV
From the text: The experimental media (modified Barth's solution) consisted of millimolar (“mM”): NaCl (88), NaHCO3 (2.4), KCl (1.0), HEPES (10), MgSO4 (0.82), Ca(NO3)2 (0.33), CaCl2 (0.41); pH 7.5.

[2] = system: rat small intestine tissue; assay: Rat small intestine (ileum) strips: inhibition of nifedipine-sensitive force; conditions: integral of nifedipine-sensitive force, 30 min post-compound
From the text: The ability of the compounds of the invention to relax rat small intestine tissue as a model for the treatment of irritable bowel syndrome is described as follows. Male rats (Harlan, Sprague Dawley, 250–350 g) were sacrificed by decapitation. A portion of small intestine (ileum) was removed and the attached connective tissues and intestinal contents removed. The ileum was cut into segments of ≦1 cm in length. The segments were mounted longitudinally between fixed hooks in organ baths containing warm (37° C.) physiological salt solution (composition in mM: NaCl 118.4, KCl 4.7, KH2PO4 1.2, MgSO4 1.2, CaCl2 1.8, Glucose 10.1, NaHCO3 25; gassed with 95% O2/5% CO2, pH 7.4). A stable tension of ˜1.5 g was maintained in the tissue segments during the equilibration period of 45 minutes. Changes in muscle tension were measured with isometric force transducers (Grass, FT-03C) and recorded using AcqKnowledge data acquisition system (AcqKnowledge for MP100WS, Biopac Systems Inc., Goleta, Calif.). Compound or vehicle was added in the baths for 30 minutes. “Zero” active force was established at the end of the experiment using nifedipine (20 μM). The effects of compounds or vehicle on force was determined by measuring the integral of nifedipine-sensitive force (including resting tone and spontaneous contractions) pre- and 30 min post-compound (or vehicle) addition. Results are expressed as the percentage inhibition of force. DMSO vehicle inhibited force (integral) by −0.6±3.0% (n=25).

[3] = system: rabbit corpus cavernosum tissue; assay: Rabbit corpus cavernosum strips: relaxation of phenylephrine-induced force; conditions: Oryctolagus cuniculus; inhibition of phenylephrine (3 μM)-induced force as compared to vehicle control; read-out: % Inhibition of force (RCC strips)
Method: The ability of the compounds of the invention to relax rabbit corpus cavernosum tissue as a model for the treatment of erectile dysfunction is described as follows. New Zealand white rabbits (3.4–3.7 kg) were euthanized by sodium pentobarbital (100 mg/kg) overdose. The penis from each animal was rapidly removed and immersed in a cold oxygenated modified Krebs Henseleit bicarbonate buffer. The penis' outer tunica was removed and the corpus cavernosum smooth muscle obtained and cut into strips approximately 3–5 mm long. The strips were suspended in tissue baths containing physiological salt solution (see above), and allowed to equilibrate for at least one hour under resting tension of 1.0 gram. Isometric force was measured as described above. Tissue strips were stimulated with the α-agonist phenylephrine (3 μM) and allowed to reach a steady level of force prior to the addition of test compounds. The results are expressed as the percentage inhibition of phenylephrine-induced force as compared to vehicle control.

[4] = at 20 μM, percent increase over BK current in controls
[5] = at 1 μM, percent increase over BK current in controls

| Compound | % MaxiK opening [1, 4] [%] | melting point [°C] | inhibition [3] [%] | also measured |
| --- | --- | --- | --- | --- |
| COc1ccc(Cl)cc1-c1c(SCC(O)CO)c(=O)[nH]c2ccc(C(F)(F)F)cc12 (centres unmarked) [Example 20, 4-(5-Chloro-2-methoxyphenyl)-3-(2,3-dihydroxypropylsulfanyl)-6-trifluoromethyl-1H-quinolin-2-one] | 178 | 110 to 114 | – | – |
| CCNC(=O)NCCSc1c(-c2cc(Cl)ccc2OC)c2cc(C(F)(F)F)ccc2[nH]c1=O [Example 3, 1-{2-[4-(5-Chloro-2-methoxy-phenyl)-2-oxo-6-trifluoromethyl-1,2-dihydro-quinolin-3-ylsulfanyl]-ethyl}-3-ethyl-urea] | 123 | – | – | % Inhibition of force (RSI strips) [2]: 17b % |
| O=c1[nH]c2ccc(C(F)(F)F)cc2c(-c2cc(Cl)ccc2O)c1SC[C@H](O)CO [Example 19, (R)-4-(5-Chloro-2-hydroxyphenyl)-3-(2,3-dihydroxypropylsulfanyl)-6-trifluoromethyl-1H-quinolin-2-one] | 256 | – | 41 | – |
| COc1ccc(Cl)cc1-c1c(SCCNC(N)=O)c(=O)[nH]c2ccc(C(F)(F)F)cc12 [Example 4, 1-{2-[4-(5-Chloro-2-methoxy-phenyl)-2-oxo-6-trifluoromethyl-1,2-dihydro-quinolin-3-ylsulfanyl]-ethyl}urea] | 140 | – | – | – |
| COc1ccc(Cl)cc1-c1c(S/C=C/CO)c(=O)[nH]c2ccc(C(F)(F)F)cc12 [Example 21] | – | 148 to 150 | – | % MaxiK opening [1, 5]: 135^⋄ % |
| O=c1[nH]c2ccc(C(F)(F)F)cc2c(-c2cc(Cl)ccc2O)c1SCCCO [Example 14, 4-(5-Chloro-2-hydroxyphenyl)-3-(3-hydroxypropylsulfanyl)-6-trifluoromethyl-1H-quinolin-2-one] | 242 | 178 to 180 | 23 | – |
| O=c1[nH]c2ccc(C(F)(F)F)cc2c(-c2cc(Cl)ccc2O)c1SCCO [Example 10, 4-(5-Chloro-2-hydroxyphenyl)-3-(2-hydroxyethylsulfanyl)-6-trifluoromethyl-1H-quinolin-2-one] | 348 | 278 to 279 | 43 | – |
| N#CCCSc1c(-c2cc(Cl)ccc2O)c2cc(C(F)(F)F)ccc2[nH]c1=O [Example 11, 3-[4-(5-Chloro-2-hydroxyphenyl)-2-oxo-6-trifluoromethyl-1,2-dihydro-quinolin-3-ylsulfanyl]propionitrile] | 189 | 140 | – | – |
| O=c1[nH]c2ccc(C(F)(F)F)cc2c(-c2cc(Cl)ccc2O)c1SCC(O)CO (racemic) [Example 17, (±)-4-(5-Chloro-2-hydroxyphenyl)-3-(2,3-dihydroxypropylsulfanyl)-6-trifluoromethyl-1H-quinolin-2-one] | 246 | 178 to 180 | 31 | % Inhibition of force (RSI strips) [2]: 6% |
| COCCSc1c(-c2cc(Cl)ccc2O)c2cc(C(F)(F)F)ccc2[nH]c1=O [Example 12, 4-(5-Chloro-2-hydroxyphenyl)-3-(2-methoxyethylsulfanyl)-6-trifluoromethyl-1H-quinolin-2-one] | – | – | – | % MaxiK opening [1, 5]: 208^⋄ % |
| O=c1[nH]c2ccc(C(F)(F)F)cc2c(-c2cc(Cl)ccc2O)c1S [Example 8, 4-(5-Chloro-2-hydroxyphenyl)-3-mercapto-6-trifluoromethyl-1H-quinolin-2-one] | 197 | – | – | – |
| O=c1[nH]c2ccc(C(F)(F)F)cc2c(-c2cc(Cl)ccc2O)c1SC[C@@H](O)CO [Example 18, (S)-4-(5-Chloro-2-hydroxyphenyl)-3-(2,3-dihydroxypropylsulfanyl)-6-trifluoromethyl-1H-quinolin-2-one] | 223 | – | 45 | – |
| COc1ccc(Cl)cc1-c1c(SCC(=O)O)c(=O)[nH]c2ccc(C(F)(F)F)cc12 [Example 1] | 155 | 235 | 14 | – |
| NC(=O)NCCSc1c(-c2cc(Cl)ccc2O)c2cc(C(F)(F)F)ccc2[nH]c1=O [Example 5, 1-{2-[4-(5-Chloro-2-hydroxy-phenyl)-2-oxo-6-trifluoromethyl-1,2-dihydro-quinolin-3-ylsulfanyl]-ethyl}urea] | 165 | – | 65 | % Inhibition of force (RSI strips) [2]: 21% |
| CNC(=O)NCCSc1c(-c2cc(Cl)ccc2O)c2cc(C(F)(F)F)ccc2[nH]c1=O [Example 6, 1-{2-[4-(5-Chloro-2-hydroxy-phenyl)-2-oxo-6-trifluoromethyl-1,2-dihydro-quinolin-3-ylsulfanyl]-ethyl}-3-methyl-urea] | 176 | – | – | – |
| CCNC(=O)NCCSc1c(-c2cc(Cl)ccc2O)c2cc(C(F)(F)F)ccc2[nH]c1=O [Example 7, 1-{2-[4-(5-Chloro-2-hydroxy-phenyl)-2-oxo-6-trifluoromethyl-1,2-dihydro-quinolin-3-ylsulfanyl]-ethyl}-3-ethyl-urea] | – | – | – | % MaxiK opening ([1]; marked ⋄⋄ (concentration footnote not given)): 160^⋄⋄ % |
| N#CCCCSc1c(-c2cc(Cl)ccc2O)c2cc(C(F)(F)F)ccc2[nH]c1=O [Example 13, 4-[4-(5-Chloro-2-hydroxyphenyl)-2-oxo-6-trifluoromethyl-1,2-dihydro-quinolin-3-ylsulfanyl]butyronitrile] | 198 | 217 | – | – |
| COc1ccc(Cl)cc1-c1c(S)c(=O)[nH]c2ccc(C(F)(F)F)cc12 [Example 9, 4-(5-Chloro-2-methoxyphenyl)-3-mercapto-6-trifluoromethyl-1H-quinolin-2-one] | – | 239 to 241 | – | % MaxiK opening [1, 5]: 149^⋄ % |
| COc1ccc(Cl)cc1-c1c(SCCCO)c(=O)[nH]c2ccc(C(F)(F)F)cc12 [Example 15, 4-(5-Chloro-2-methoxyphenyl)-3-(3-hydroxypropylsulfanyl)-6-trifluoromethyl-1H-quinolin-2-one] | 140 | 211 | – | – |
| COc1ccc(Cl)cc1-c1c(SCCO)c(=O)[nH]c2ccc(C(F)(F)F)cc12 [Example 16, 4-(5-Chloro-2-methoxyphenyl)-3-(2-hydroxyethylsulfanyl)-6-trifluoromethyl-1H-quinolin-2-one] | 149 | 98 to 100 | – | – |
